# Laboratory results from PMC9599717, “The Multicellular Effects of VDAC1 N-Terminal-Derived Peptide” (Biomolecules, 2022).
# What was measured:
# [1] = tested on: HeLa (human cervix adenocarcinoma); experiment: Cell death by PI staining and flow cytometry (FACS), HeLa; type: cell-based; details: HeLa cells
# Experimental: MEC-1 cells were incubated in a serum-free medium with various concentrations of VDAC1-based peptides for 1.5 h at room temperature (RT), collected by centrifugation, washed with phosphate-buffered saline (PBS), and analyzed for cell death. Adherent cancer cells were seeded in culture plates and allowed to adhere overnight in a sterile cell culture incubation chamber maintained at 37 °C and 5% CO2. The next day, media was removed from the plates, and cells were treated with various concentrations of VDAC1-based peptides for the indicated time in serum-free Dulbecco’s Modified Eagle Medium (DMEM) with and without DMSO (final 0.15%) as a control for 6 h at 37 °C and 5% CO2. Cells were trypsinized, centrifuged (1500× g, 5 min), and washed with PBS.
# Cell death was analyzed by the propidium iodide (PI) staining, followed by flow cytometry with the iCyt sy3200 Benchtop Cell Sorter/Analyzer and analysis with EC800 v 1.3.7 software (Sony Biotechnology Inc., San Jose, CA, USA). Apoptosis was analyzed by PI and annexin V-FITC staining, which was carried out according to the manufacturer’s instructions with minor modifications. […] Next, cells were washed and PI (6.25 μg/mL), was added immediately before flow cytometry At least 10,000 events were collected, recorded on a dot plot, and analyzed by flow cytometry. […]
# vinculin in U-87MG cells = experiment: Vinculin immunofluorescence staining intensity; type: cell-based, human
# Experimental: Cells were seeded on sterile glass coverslips in 12-well plates and cultured until reaching about 80% confluence. Cells were treated with D-Δ(1-18)N-Ter-Antp peptide in serum-free DMEM for 24 h. Then cells were washed with PBS, fixed in 4% paraformaldehyde for 20 min, washed three times with PBS, permeabilized with 0.3% Triton X-100 in PBS, and blocked, in blocking buffer (10% Normal goat serum, 1% fatty acid-free bovine serum albumin [BSA], 0.1% TritonX100 diluted in PBS) for 2 h. Cells were incubated overnight at 4 ℃ with the appropriate primary antibodies (Table S1), followed by three washes with PBS. […]
# Quantitation of protein levels, as reflected in the staining intensity, was analyzed in the whole area of the sections using Image J software.
# Figure 2 D-Δ(1-18)N-Ter-Antp-induced changes in cell morphology and cell membrane permeability. (A,B) U-87MG cells were treated with the indicated concentrations of D-Δ(1-18)N-Ter-Antp peptide for 16 h, and cell morphology was monitored by light microscope (A). Quantification of cell size (B). (C,D) U-87MG cells were untreated or treated with 10 μM of D-Δ(1-18)N-Ter-Antp peptide or N-TerΔ(21-26)-Antp for 24 h, and cell morphology was monitored by light microscope (C). Quantification of cell size (D). […] Quantification of vinculin staining intensity (F). […]
substance,measurement,setting,value
19-FTKGYGFGL-26- RQIKIWFQNRRMKWKK [D-Δ(1-18)N-Ter-Antp],Maximal cell death (at the concentration for maximal cell death),[1]; 6 h,100%
same,IC50,"[1]; 6 h incubation, serum-free medium, PI staining and FACS, read-out: IC50, peptide concentration required for half-maximal cell death activity",2000 nM
same,Increase of vinculin expression compared to untreated cells,vinculin in U-87MG cells,4 fold
